Data published in patent US11098043B2, “Certain imidazopyridines as cyclic AMP response element binding (CREB) binding protein (CBP) inhibitors and uses thereof” (University of Massachusetts, priority 2017, dated 2021).

How the values were obtained:
CBP bromodomain = molecular target: T1, CBP bromodomain (Homo sapiens, UniProt Q92793); assay: AlphaScreen in vitro binding assay with CBP; settings: for IC50: AlphaScreen, isolated CBP bromodomain, means of at least two determinations; for Selectivity Value [BRD4(1) IC50 (μM)/CBP IC50 (μM)]: ratio BRD4(1) IC50 / CBP IC50
T1 construct: docked complex of Compound 21 with CBP bromodomain
Procedure: (§1) To determine the binding selectivity of compounds provided, AlphaScreen in vitro binding assays were performed with either CBP or BRD4.
(§2) Assays were performed with minor modifications from the manufacturer's protocol (Perkin Elmer, USA). All reagents were diluted in AlphaScreen™ buffer (50 mM HEPES, 150 mM NaCl, 0.01% v/v Tween-20, 0.1% w/v BSA, pH 7.4). After addition of Alpha beads to master solutions, all subsequent steps were performed under low light conditions. A 2× solution of components with final concentrations of His-BRD4(1) at 20 nM or His-CBP at 50 nM, Ni-coated Acceptor bead at 10 μg/ml, and biotinylated-JQ1 at 10 nM or biotinylated peptide at 100 nM was added in 10 μL to 384-well plates (AlphaPlate-384, PerkinElmer) using an EL406 liquid handler (Biotek, USA). Plates were spun down at 1000 rpm. A 10-point 1: √{square root over (sqrt(10))} serial dilution of compounds in DMSO was prepared at 200× the final concentration. 100 nL of compound from these stock plates were added by pin transfer using a Janus Workstation (PerkinElmer). A 2× solution of streptavidin-coated donor beads with a final concentration of 10 μg/ml was added in a 10 μL volume. The plates were spun down again at 1000 rpm and sealed with foil to prevent light exposure and evaporation. The plates were then incubated at room temperature for 1 hour and read on an Envision 2104 (PerkinElmer) using the manufacturer's protocol. IC50 values were calculated using a 4-parameter logistic curve in Prism 6 (GraphPad Software, USA) after normalization to DMSO-treated negative control wells.

BRD4(1) bromodomain = molecular target: T2, BRD4(1) bromodomain (Homo sapiens, UniProt O60885); assay: AlphaScreen in vitro binding assay with BRD4; settings: isolated BRD4 bromodomain, means of at least two determinations
T2 construct: final concentrations of His-BRD4(1) at 20 nM
Procedure: as §1
as §2, with “A 2× solution of components with final concentrations of His-BRD4(1) at 20 nM or His-CBP at 50 nM, Ni-coated Acceptor bead at 10 μg/ml, and biotinylated-JQ1 at 10 nM or biotinylated peptide at 100 nM was added in 10 μL to 384-well plates (AlphaPlate-384, PerkinElmer) using an EL406 liquid handler (Biotek, USA).” left out

T1 sequence (Q92793 1085-1192 limits assumed): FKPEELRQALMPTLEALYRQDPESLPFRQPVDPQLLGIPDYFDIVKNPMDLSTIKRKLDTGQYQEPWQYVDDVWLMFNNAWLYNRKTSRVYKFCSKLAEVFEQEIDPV

SMILES	IC50 (CBP bromodomain)	Selectivity Value [BRD4(1) IC50 (μM)/CBP IC50 (μM)] (CBP bromodomain)	IC50 (BRD4(1) bromodomain)
COc1ccc(CCc2nc3cc(-c4c(C)noc4C)ccn3c2NC2CCCCC2)cc1OC [Compound 33]	0.759 µM	8	6.22 µM
COc1ccc(CCc2nc3cc(-c4c(C)noc4C)ccn3c2NC(C)C)cc1OC [Compound 34]	3.52 µM	6	22.6 µM
Cc1noc(C)c1-c1ccn2c(NC3CCCCC3)c(CCc3ccc(OC(C)C)cc3)nc2c1 [Compound 36]	0.737 µM	11	8.18 µM
COc1ccc(CCc2nc3cc(-c4c(C)noc4C)ccn3c2N[C@H](C)c2ccccc2)cc1 [Compound 37]	1.57 µM	7	11 µM
